In PubChem BioAssay AID1259407 (Chemical Carcinogenesis Research Information System (CCRIS), 2018):
The source made the active and inactive calls. No rule for the calls is given here.

Test system: CCRIS mutagenicity, Ames/micronucleus/aberration tests
Assay: CCRIS mutagenicity studies
[1] = Test System: AMES SALMONELLA TYPHIMURIUM, Strain/Indicator: TA1535, Metabolic Activation: NONE, Method: PREINCUBATION

CCCCN(CCCC)N=O
mutagenic call (Test System: AMES SALMONELLA TYPHIMURIUM, Strain/Indicator: TA100, Metabolic Activation: MOUSE, INTACT UROTHELIAL CELLS, Method: FLUCTUATION TEST): active; positive
mutagenic call (Test System: AMES SALMONELLA TYPHIMURIUM, Strain/Indicator: TA100, Metabolic Activation: RAT, INTACT UROTHELIAL CELLS, Method: FLUCTUATION TEST): active; positive
mutagenic call (Test System: AMES SALMONELLA TYPHIMURIUM, Strain/Indicator: TA100, Metabolic Activation: RAT, LIVER, S-9, AROCLOR 1254, Method: PREINCUBATION): active; positive
mutagenic call (Test System: AMES SALMONELLA TYPHIMURIUM, Strain/Indicator: TA100, Metabolic Activation: RAT, LIVER, S-9, KC500 OR PHENOBARBITAL, Method: LIQUID SUSPENSION): active; positive
mutagenic call (Test System: AMES SALMONELLA TYPHIMURIUM, Strain/Indicator: TA104, Metabolic Activation: RAT, LIVER, S-9, AROCLOR 1254, Method: PREINCUBATION): active; positive
mutagenic call (Test System: AMES SALMONELLA TYPHIMURIUM, Strain/Indicator: TA1530, Metabolic Activation: RAT, LIVER, S-9, Method: STANDARD PLATE): active; positive
mutagenic call [1]: inactive; negative
mutagenic call (Test System: AMES SALMONELLA TYPHIMURIUM, Strain/Indicator: TA1535, Metabolic Activation: RAT, LIVER, HEPATOCYTES, Method: PREINCUBATION): inactive; negative
mutagenic call (Test System: AMES SALMONELLA TYPHIMURIUM, Strain/Indicator: TA1535, Metabolic Activation: RAT, LIVER, MICROSOMES, KANECHLOR 500, Method: PREINCUBATION): active; positive
mutagenic call (Test System: AMES SALMONELLA TYPHIMURIUM, Strain/Indicator: TA1535, Metabolic Activation: RAT, LIVER, S-9, AROCLOR 1254, Method: PREINCUBATION): active; positive
mutagenic call (Test System: AMES SALMONELLA TYPHIMURIUM, Strain/Indicator: TA1535, Metabolic Activation: RAT, LIVER, S-9, AROCLOR, Method: PREINCUBATION): active; positive
mutagenic call (Test System: AMES SALMONELLA TYPHIMURIUM, Strain/Indicator: TA1535, Metabolic Activation: RAT, LIVER, S-9, SODIUM PHENOBARBITONE, Method: PREINCUBATION): active; positive
mutagenic call (Test System: AMES SALMONELLA TYPHIMURIUM, Strain/Indicator: TA1535, Metabolic Activation: RAT, LIVER, S-9, Method: PREINCUBATION): inactive; negative
mutagenic call (Test System: AMES SALMONELLA TYPHIMURIUM, Strain/Indicator: TA1535ER, Metabolic Activation: NONE, Method: STANDARD PLATE): inactive; negative
mutagenic call (Test System: AMES SALMONELLA TYPHIMURIUM, Strain/Indicator: TA1975, Metabolic Activation: RAT, LIVER, S-9, AROCLOR 1254, Method: PREINCUBATION): active; positive
mutagenic call (Test System: AMES SALMONELLA TYPHIMURIUM, Strain/Indicator: YG7104ER, Metabolic Activation: NONE, Method: STANDARD PLATE): active; positive
mutagenic call (Test System: AMES SALMONELLA TYPHIMURIUM, Strain/Indicator: YG7108ER, Metabolic Activation: NONE, Method: STANDARD PLATE): active; positive
mutagenic call (Test System: CHINESE HAMSTER V-79, Strain/Indicator: V-79/8-AZAGUANINE, Metabolic Activation: RAT, LIVER, S-15, PHENOBARBITAL, Method: STANDARD PLATE): active; positive
mutagenic call (Test System: CHINESE HAMSTER V-79, Strain/Indicator: V-79/OUABAIN, Metabolic Activation: HAMSTER, HEPATOCYTES, Method: CELL-MEDIATED): active; positive
mutagenic call (Test System: E. COLI, Strain/Indicator: WP2 (HCR), Metabolic Activation: RAT, LIVER, MICROSOMES, KANECHLOR 500, Method: PREINCUBATION): active; positive
mutagenic call (Test System: E. COLI, Strain/Indicator: WP2 (HCR-), Metabolic Activation: RAT, LIVER, MICROSOMES, PHENOBARBITAL): active; positive

[O-][Br+2]([O-])O
mutagenic call (End Point: IN VITRO CHROMOSOMAL ABERRATIONS, Test System: CHL/IU CELLS, Metabolic Activation: NONE): active; positive (structural changes)
mutagenic call (End Point: IN VITRO MICRONUCLEUS, Test System: CHL/IU CELLS, Metabolic Activation: NONE): active; positive
mutagenic call (End Point: IN VIVO MICRONUCLEUS, Test System: BONE MARROW POLYCHROMATIC ERYTHROCYTES, Species: MOUSE, Strain/Sex: DDY/MALE, Route: ORAL): active; positive
mutagenic call (End Point: In vitro chromosomal aberrations, Test System: Chinese hamster lung (CHL) cells, Metabolic Activation: None): active; positive (structural changes)
mutagenic call (End Point: In vitro micronucleus, Test System: Human TK6 lymphoblastoid cells, Metabolic Activation: None): active; positive
mutagenic call (End Point: In vivo micronucleus, Test System: Peripheral blood normochromatic erythrocytes, Species: Mouse, Strain/Sex: Tg.AC hemizygous/Female, Route: Dermal): active; positive
mutagenic call (End Point: In vivo micronucleus, Test System: Peripheral blood normochromatic erythrocytes, Species: Mouse, Strain/Sex: Tg.AC hemizygous/Female, Route: Oral): active; positive
mutagenic call (End Point: In vivo micronucleus, Test System: Peripheral blood normochromatic erythrocytes, Species: Mouse, Strain/Sex: Tg.AC hemizygous/Male, Route: Dermal): active; positive
mutagenic call (End Point: In vivo micronucleus, Test System: Peripheral blood normochromatic erythrocytes, Species: Mouse, Strain/Sex: Tg.AC hemizygous/Male, Route: Oral): active; positive
mutagenic call (End Point: In vivo micronucleus, Test System: Peripheral blood normochromatic erythrocytes, Species: Mouse, Strain/Sex: p53 Haploinsufficient/Female, Route: Oral): active; positive
mutagenic call (End Point: In vivo micronucleus, Test System: Peripheral blood normochromatic erythrocytes, Species: Mouse, Strain/Sex: p53 Haploinsufficient/Male, Route: Oral): active; positive
mutagenic call (End Point: In vivo mutagenicity, Test System: Kidney, Species: Rat, Strain/Sex: Big Blue/male, Route: Oral): active; positive for mutants and total mutation frequencies and frequency of gc to ta tr
mutagenic call (Test System: AMES SALMONELLA TYPHIMURIUM, Strain/Indicator: TA97, Metabolic Activation: HAMSTER, LIVER, S-9, AROCLOR 1254 (10%), Method: PREINCUBATION): inactive; negative
mutagenic call (Test System: AMES SALMONELLA TYPHIMURIUM, Strain/Indicator: TA97, Metabolic Activation: HAMSTER, LIVER, S-9, AROCLOR 1254 (30%), Method: PREINCUBATION): inactive; negative
mutagenic call (Test System: AMES SALMONELLA TYPHIMURIUM, Strain/Indicator: TA97, Metabolic Activation: RAT, LIVER, S-9, AROCLOR 1254 (30%), Method: PREINCUBATION): inactive; negative
mutagenic call (Test System: AMES SALMONELLA TYPHIMURIUM, Strain/Indicator: TA97, Metabolic Activation: RAT, LIVER, S-9, AROCLOR 1254, Method: PREINCUBATION): inactive; negative
mutagenic call (Test System: AMES SALMONELLA TYPHIMURIUM, Strain/Indicator: TA98, Metabolic Activation: HAMSTER, LIVER, S-9, AROCLOR 1254 (30%), Method: PREINCUBATION): inactive; negative
mutagenic call (Test System: AMES SALMONELLA TYPHIMURIUM, Strain/Indicator: TA98, Metabolic Activation: NONE, Method: PREINCUBATION): inactive; negative
mutagenic call (Test System: AMES SALMONELLA TYPHIMURIUM, Strain/Indicator: TA98, Metabolic Activation: RAT, LIVER, S-9, AROCLOR 1254 (30%), Method: PREINCUBATION): inactive; negative
mutagenic call (Test System: AMES SALMONELLA TYPHIMURIUM, Strain/Indicator: TA100, Metabolic Activation: HAMSTER, LIVER, S-9, AROCLOR 1254 (30%), Method: PREINCUBATION): inactive; negative
mutagenic call (Test System: AMES SALMONELLA TYPHIMURIUM, Strain/Indicator: TA100, Metabolic Activation: NONE, Method: PREINCUBATION): inactive; negative
mutagenic call (Test System: AMES SALMONELLA TYPHIMURIUM, Strain/Indicator: TA100, Metabolic Activation: RAT, LIVER, S-9, AROCLOR 1254 (30%), Method: PREINCUBATION): inactive; negative
mutagenic call (Test System: AMES SALMONELLA TYPHIMURIUM, Strain/Indicator: TA102, Metabolic Activation: NONE, Method: PREINCUBATION): inactive; negative
mutagenic call (Test System: AMES SALMONELLA TYPHIMURIUM, Strain/Indicator: TA102, Metabolic Activation: RAT, LIVER, S-9, AROCLOR 1254, Method: PREINCUBATION): inactive; negative
mutagenic call (Test System: AMES SALMONELLA TYPHIMURIUM, Strain/Indicator: TA1535, Metabolic Activation: HAMSTER, LIVER, S-9, AROCLOR 1254 (10%), Method: PREINCUBATION): active; positive
mutagenic call [1]: inactive; negative
mutagenic call (Test System: AMES SALMONELLA TYPHIMURIUM, Strain/Indicator: TA1537, Metabolic Activation: HAMSTER, LIVER, S-9, AROCLOR 1254 (10 OR 30%), Method: PREINCUBATION): inactive; negative
mutagenic call (Test System: AMES SALMONELLA TYPHIMURIUM, Strain/Indicator: TA1537, Metabolic Activation: NONE, Method: PREINCUBATION): inactive; negative
mutagenic call (Test System: AMES SALMONELLA TYPHIMURIUM, Strain/Indicator: TA1537, Metabolic Activation: RAT, LIVER, S-9, AROCLOR 1254 (10 OR 30%), Method: PREINCUBATION): inactive; negative
mutagenic call (Test System: CHINESE HAMSTER V-79 CELLS, Strain/Indicator: V-79-UL (HPRT)/6-THIOGUANINE, Metabolic Activation: NONE, Method: SUSPENSION/PLATE): active; positive
mutagenic call (Test System: Human lymphoblastoid cells, Strain/Indicator: TK6 (HPRT)/6-thioguanine, Metabolic Activation: None, Method: Suspension/Well): active; positive
